Laboratory results as given in ChEMBL document CHEMBL1137975, “DNA binding ligands with in vivo efficacy in murine models of bacterial infection: optimization of internal aromatic amino acids” (2004).
Converted amounts (≈) assume the structure as drawn.

Tests used:
Enterococcus faecalis = test: Minimum inhibitory concentration in mice against antimicrobial activity in vancomycin-sensitive Enterococcus faecalis (VSEF 29212).
[1] = Minimum inhibitory concentration in mice against antimicrobial activity in […] (PISP 49619).; type: functional; conditions: Streptococcus pneumoniae
Staphylococcus aureus = test: Minimum inhibitory concentration in mice against antimicrobial activity in methicillin-resistant Staphylococcus aureus(MRSA 27660).; type: functional
Mus musculus [2] = organism: Mus musculus; test: Minimum inhibitory concentration was evaluated in mice against antimicrobial activity in […] Enterococcus faecalis (VSEF 29212); 2-8; type: functional
Mus musculus [3] = organism: Mus musculus; test: Minimum inhibitory concentration was evaluated in mice against antimicrobial activity in […] (PISP 49619); 0.5-2; type: functional
Mus musculus [4] = organism: Mus musculus; test: Minimum inhibitory concentration was evaluated in mice against antimicrobial activity in methicillin-resistant Staphylococcus aureus(MRSA 27660); 0.06-0.13; type: functional
Mus musculus [5] = organism: Mus musculus; test: Minimum inhibitory concentration was evaluated in mice against antimicrobial activity in […] (PISP 49619); 0.03-0.06; type: functional
Mus musculus [6] = organism: Mus musculus; test: Minimum inhibitory concentration was evaluated in mice against antimicrobial activity in […] (PISP 49619); 1-32; type: functional
Mus musculus [7] = organism: Mus musculus; test: Minimum inhibitory concentration was evaluated in mice against antimicrobial activity in […] (PISP 49619); 0.03-0.13; type: functional
Mus musculus [8] = organism: Mus musculus; test: Minimum inhibitory concentration was evaluated in mice against antimicrobial activity in […] Enterococcus faecalis (VSEF 29212); 0.13-1; type: functional

| SMILES | MIC (Enterococcus faecalis) | MIC [1] | MIC (Staphylococcus aureus) | further results |
| --- | --- | --- | --- | --- |
| CN[C@H](CC(C)C)C(=O)N[C@H]1C(=O)N[C@@H](CC(N)=O)C(=O)N[C@H]2C(=O)N[C@H]3C(=O)N[C@H](C(=O)N[C@H](C(=O)O)c4cc(O)cc(O)c4-c4cc3ccc4O)[C@H](O)c3ccc(c(Cl)c3)Oc3cc2cc(c3O[C@@H]2O[C@H](CO)[C@@H](O)[C@H](O)[C@H]2O[C@H]2C[C@](C)(N)[C@H](O)[C@H](C)O2)Oc2ccc(cc2Cl)[C@H]1O [VANCOMYCIN] | 1 µg/mL (≈ 0.69 µM) | 0.25 µg/mL (≈ 0.173 µM) |  |  |
| Cn1cc(NC(=O)c2cc(NC(=O)c3cc(NC(=O)c4sccc4Cl)cn3C)c[nH]2)cc1C(=O)NCCN1CCOCC1 |  |  | 8 µg/mL (≈ 12.8 µM) | MIC (Mus musculus [2]): 8 µg/mL (≈ 12.8 µM); MIC (Mus musculus [3]): 2 µg/mL (≈ 3.19 µM) |
| Cn1cc(NC(=O)c2ccc(NC(=O)c3cc(NC(=O)c4cc5cc6c(cc5s4)OCO6)cn3C)cc2)cc1C(=O)NCCN1CCOCC1 | > 32 µg/mL | 0.5 µg/mL (≈ 0.717 µM) | 32 µg/mL (≈ 45.9 µM) |  |
| Cn1cc(NC(=O)c2cc(NC(=O)c3cc(NC(=O)c4cc5ccccc5cn4)cn3C)cs2)cc1C(=O)NCCN1CCOCC1 | > 32 µg/mL | 0.5 µg/mL (≈ 0.764 µM) | 8 µg/mL (≈ 12.2 µM) |  |
| CC(C)n1cc(NC(=O)c2sccc2Cl)cc1C(=O)Nc1cc(C(=O)Nc2cc(C(=O)NCCN3CCOCC3)n(C)c2)n(C)c1 | 4 µg/mL (≈ 5.98 µM) | 2 µg/mL (≈ 2.99 µM) | 4 µg/mL (≈ 5.98 µM) |  |
| Cn1cc(NC(=O)c2cc(NC(=O)c3ccc(NC(=O)c4sccc4Cl)cc3)cn2C)cc1C(=O)NCCN1CCOCC1 | 16 µg/mL (≈ 25.1 µM) | 32 µg/mL (≈ 50.1 µM) | 32 µg/mL (≈ 50.1 µM) |  |
| Cn1cc(NC(=O)c2cc(NC(=O)c3cc(NC(=O)c4sccc4Cl)nn3C)cn2C)cc1C(=O)NCCN1CCOCC1 | 8 µg/mL (≈ 12.5 µM) | 0.25 µg/mL (≈ 0.389 µM) | 8 µg/mL (≈ 12.5 µM) |  |
| Cn1cc(NC(=O)c2sccc2Cl)cc1C(=O)Nc1cc(C(=O)Nc2c[nH]c(C(=O)NCCN3CCOCC3)c2)n(C)c1 | 32 µg/mL (≈ 51 µM) | 8 µg/mL (≈ 12.8 µM) | 16 µg/mL (≈ 25.5 µM) |  |
| Cn1cc(NC(=O)c2ccc(NC(=O)c3cc(NC(=O)c4cnc5ccccc5c4)cn3C)cc2)cc1C(=O)NCCN1CCOCC1 | > 32 µg/mL | 2 µg/mL (≈ 3.08 µM) | > 32 µg/mL |  |
| Cn1cc(NC(=O)c2ccc(NC(=O)c3cc(NC(=O)c4cc5ccccc5cn4)cn3C)cc2)cc1C(=O)NCCN1CCOCC1 |  |  |  | MIC (Mus musculus [4]): 0.13 µg/mL (≈ 0.2 µM); MIC (Mus musculus [5]): 0.06 µg/mL (≈ 0.0925 µM) |
| Cn1cc(NC(=O)c2cc(NC(=O)c3cc(NC(=O)c4cc5ccccc5cn4)cn3C)cn2C)cc1C(=O)NCCN1CCOCC1 | 0.25 µg/mL (≈ 0.384 µM) | 0.06 µg/mL (≈ 0.0921 µM) | 0.5 µg/mL (≈ 0.767 µM) |  |
| Cn1cc(NC(=O)c2cc(NC(=O)c3cc(NC(=O)c4cc5ccccc5cn4)cn3C)nn2C)cc1C(=O)NCCN1CCOCC1 | 1 µg/mL (≈ 1.53 µM) | 0.25 µg/mL (≈ 0.383 µM) | 0.5 µg/mL (≈ 0.766 µM) |  |
| Cn1cc(NC(=O)c2cc(NC(=O)c3cc(NC(=O)c4cc5ccccc5cn4)nn3C)cn2C)cc1C(=O)NCCN1CCOCC1 | 8 µg/mL (≈ 12.3 µM) | 0.5 µg/mL (≈ 0.766 µM) | 1 µg/mL (≈ 1.53 µM) |  |
| Cn1cc(NC(=O)c2sccc2Cl)cc1C(=O)Nc1cc(C(=O)Nc2ccc(C(=O)NCCN3CCOCC3)cc2)n(C)c1 | > 32 µg/mL | > 32 µg/mL | > 32 µg/mL |  |
| Cc1cnc(C(=O)Nc2cc(C(=O)Nc3ccc(C(=O)Nc4cc(C(=O)NCCN5CCOCC5)n(C)c4)cc3)n(C)c2)cn1 | 2 µg/mL (≈ 3.26 µM) | 0.13 µg/mL (≈ 0.212 µM) | 0.5 µg/mL (≈ 0.815 µM) |  |
| Cn1cc(NC(=O)c2cc(NC(=O)c3cc(NC(=O)c4sccc4Cl)cn3C)nn2C)cc1C(=O)NCCN1CCOCC1 | > 32 µg/mL |  | 32 µg/mL (≈ 49.8 µM) | MIC (Mus musculus [6]): 32 µg/mL (≈ 49.8 µM) |
| Cn1cc(NC(=O)c2ccc(NC(=O)c3cc(NC(=O)c4sc5ccccc5c4Cl)cn3C)cc2)cc1C(=O)NCCN1CCOCC1 | 16 µg/mL (≈ 23.2 µM) | 0.25 µg/mL (≈ 0.363 µM) | > 32 µg/mL |  |
| Cn1cc(NC(=O)c2sccc2Cl)cc1C(=O)Nc1cc(C(=O)Nc2cc(C(=O)NCCN3CCOCC3)n(C)n2)n(C)c1 | > 32 µg/mL | > 32 µg/mL | > 32 µg/mL |  |
| Cn1cc(NC(=O)c2cc(NC(=O)c3cc(NC(=O)c4cc5ccccc5cn4)on3)cn2C)cc1C(=O)NCCN1CCOCC1 | 0.5 µg/mL (≈ 0.782 µM) | 0.13 µg/mL (≈ 0.203 µM) | 0.06 µg/mL (≈ 0.0938 µM) |  |
| Cn1cc(NC(=O)c2cc(NC(=O)c3nc(NC(=O)c4sccc4Cl)cn3C)cn2C)cc1C(=O)NCCN1CCOCC1 |  |  |  | MIC (Mus musculus [7]): 0.13 µg/mL (≈ 0.202 µM); MIC (Mus musculus [8]): 1 µg/mL (≈ 1.56 µM) |
